A short description of data set [1]: Selectivity index, ratio of maximal tolerant concentration for mouse ScN2a cells to EC50 for scrapie prion protein RML infected mouse ScN2a cells.
The nature of data set [2]: Antiprion activity against scrapie prion protein RML infected mouse ScN2a cells assessed as reduction of scrapie prion protein accumulation by immunoblot analysis. It is filed as cell-based.
Data set [3] has as its system ScN2a. Put plainly: Antiprion activity against scrapie prion protein RML infected mouse ScN2a cells assessed as drug level required for more than 99 percent reduction of scrapie prion protein by immunoblot analysis. It is filed as cell-based. For orientation: Immunoblotting shows a protein as a band on a membrane.
Data set [4] in a line: Cytotoxicity against mouse ScN2a cells assessed as maximal tolerant concentration. It is filed as cell-based. The following applies: read-out: Activity.
The nature of data set [5]: Antiprion activity against scrapie prion protein RML infected mouse Ch2 cells assessed as reduction of scrapie prion protein accumulation. It is filed as cell-based.
Data set [6] can be described thus: Antiprion activity against scrapie prion protein 22L infected mouse N167 cells assessed as reduction of scrapie prion protein accumulation. It is filed as cell-based.
A short description of data set [7]: Antiprion activity against human prion Fukuoka-1 infected mouse F3 cells assessed as reduction of scrapie prion protein accumulation. It is filed as cell-based. The following applies: N2a #58 F3.
Data set [8] relates to Ch2. Put plainly: Antiprion activity against scrapie prion protein RML infected mouse Ch2 cells assessed as drug level required for more than 99 percent reduction of scrapie prion protein. It is filed as cell-based.
Data set [9] concerns N167. Briefly: Antiprion activity against scrapie prion protein 22L infected mouse N167 cells assessed as drug level required for more than 99 percent reduction of scrapie prion protein. It is filed as cell-based.
The test system of data set [10] is N2a #58 F3. Briefly: Antiprion activity against human prion Fukuoka-1 infected mouse F3 cells assessed as drug level required for more than 99 percent reduction of scrapie prion protein. It is filed as cell-based.

Usually EC50 stands for the concentration giving half of the maximal effect.

In the case of `COc1ccc2nc3cc(Cl)ccc3c(NCCCN(C)C)c2c1`, the “Selectivity Index” value in data set [1] is 9. Also, the EC50 in [2] is 110 nM. Also, the Activity in data set [3] came to 0.3 µM. Further, the MNTC in data set [4] was found to be 1000 nM.
In the case of `CCN(CC)c1cccc(Nc2c3ccc(Cl)cc3nc3ccc(OC)cc23)c1`, in [1], the “Selectivity Index” value was 3. For the same compound, in data set [2], the EC50 is 1010 nM. In data set [3], the Activity stood at 2.5 µM. Further, the MNTC in [4] is 3000 nM.
With `CCN(CC)CCCNc1c2ccc(Cl)cc2nc2ccc(OC)cc12`, the “Selectivity Index” value in data set [1] is recorded as 7. The EC50 in [2] turned out to be 140 nM. Moreover, the Activity in data set [3] came to 0.3 µM. For the same compound, the MNTC in [4] turned out to be 1000 nM.
With `CCN(CC)CCCC(C)Nc1c2ccc(Cl)cc2nc2ccc(OC)cc12` (stereo not given) [QUINACRINE], the EC50 in data set [5] is 460 nM; in data set [6], 590 nM; in data set [2], 230 nM; in [7] it was 1880 nM. In [1], the “Selectivity Index” value is 11. Besides, the figures for the Activity in [3] and in [8] were 0.8 µM and 2 µM, respectively. Further, the MNTC in data set [4] was found to be 2500 nM.
Consider `COc1ccc2nc3cc(Cl)ccc3c(Nc3cccc(N4CCOCC4)c3)c2c1`, for which the “Selectivity Index” value in [1] is reported as 3. For the same compound, the EC50 in data set [2] came to 900 nM. Besides, the MNTC in data set [4] amounted to 3000 nM.
On to `COc1ccc2nc3cc(Cl)ccc3c(Nc3ccccc3N(C)C)c2c1`, for which, in [1], the “Selectivity Index” value amounted to 20. The EC50 in [2] stood at 250 nM. Further, the Activity in [3] came to 0.8 µM. In addition, in [4], the MNTC amounted to 5000 nM.
Take `COc1ccc2nc3cc(Cl)ccc3c(Nc3cccc(N(C)C)c3)c2c1`: in [1], the “Selectivity Index” value turned out to be 6. For the same compound, the EC50 in data set [2] is 320 nM. The MNTC in data set [4] came to 2000 nM.
Consider `COc1ccc2nc3cc(Cl)ccc3c(Nc3cccc(N4CCCC4)c3)c2c1`, for which, in data set [1], the “Selectivity Index” value was 2. Moreover, the EC50 in data set [2] worked out at 1060 nM. In data set [4], the MNTC came out at 2000 nM.
In the case of `COc1ccc2nc3cc(Cl)ccc3c(Nc3ccc(N4CCOCC4)cc3)c2c1`, in data set [1], the “Selectivity Index” value was determined as 3. For the same compound, the EC50 in data set [2] was determined as 1280 nM. In [3], the Activity was found to be 3 µM. In [4], the MNTC was 4000 nM.
Regarding `CCN(CC)c1ccc(Nc2c3ccccc3nc3ccccc23)cc1`, the “Selectivity Index” value in [1] was found to be 2. Also, the half-maximal effective concentration (EC50) in data set [2] was 240 nM. Moreover, the MNTC in data set [4] was found to be 400 nM.
With `Nc1c2ccccc2nc2ccccc12` [AMINACRINE], in data set [4], the MNTC worked out at 2500 nM.
On to `COc1ccc2nc3cc(Cl)ccc3c(Nc3ccc(N4CCCCC4)cc3)c2c1`, for which the “Selectivity Index” value in data set [1] is recorded as 2. For the same compound, the EC50 stood at 4290 nM in data set [6] and 4240 nM in data set [2]. For the same compound, in data set [3], the Activity came out at 7 µM. Besides, the MNTC in data set [4] stood at 9000 nM.
For the compound `COc1ccc2nc3cc(Cl)ccc3c(Nc3cccc(N4CCN(C)CC4)c3)c2c1`, the Activity was 3 µM in data set [9], 3.5 µM in data set [10], 1 µM in [3] and 1.5 µM in data set [8]. Further, the EC50 in [5] amounted to 380 nM; in [6], 1190 nM; in [2] it was 290 nM; in data set [7], 1490 nM. Further, the “Selectivity Index” value in data set [1] is 14. Further, the MNTC in [4] worked out at 4000 nM.
For `CCN(CC)CCNc1c2ccc(Cl)cc2nc2ccc(OC)cc12`, the EC50 in data set [5] is 700 nM; in data set [2] it was 21 nM. Also, the “Selectivity Index” value in data set [1] is reported as 190. Further, the Activity in data set [3] came out at 0.1 µM; in [8], 3 µM. Besides, the MNTC in data set [4] stood at 4000 nM.
Regarding `CCN(CC)c1ccc(Nc2c3ccc(Cl)cc3nc3ccc(OC)cc23)cc1`, the “Selectivity Index” value in data set [1] is 4. For the same compound, in data set [2], the EC50 came to 480 nM. Moreover, the Activity in data set [3] was found to be 1.5 µM. The MNTC in data set [4] amounted to 2000 nM.
Turning to `COc1ccc2nc3cc(Cl)ccc3c(Nc3ccc(N(C)C)cc3)c2c1`, the “Selectivity Index” value in data set [1] was determined as 4. For the same compound, in data set [2], the EC50 was determined as 510 nM. The MNTC in [4] came to 2000 nM.
For `CCN(CC)CCCCNc1c2ccc(Cl)cc2nc2ccc(OC)cc12`, in [1], the “Selectivity Index” value stood at 7. Besides, in [2], the EC50 was found to be 150 nM. Besides, the Activity in data set [3] was 0.4 µM. In addition, in data set [4], the MNTC was found to be 1000 nM.
In the case of `COc1ccc2nc3cc(Cl)ccc3c(Nc3ccc(N4CCN(C)CC4)cc3)c2c1`, the Activity in data set [9] turned out to be 1.5 µM; in data set [10] it was 1.5 µM; in data set [3], 0.4 µM; in data set [8], 1.2 µM. In addition, the EC50 came out at 220 nM in data set [5], 420 nM in data set [6], 100 nM in data set [2] and 680 nM in [7]. Moreover, the “Selectivity Index” value in data set [1] was 25. The MNTC in data set [4] is 2500 nM.
For the compound `COc1ccc2nc3cc(Cl)ccc3c(NC3CCN(Cc4ccccc4)CC3)c2c1`, the results for the Activity in data set [9], in [3] and in data set [8] were 1.5 µM, 1 µM and 1 µM, respectively. Moreover, the EC50 in data set [5] amounted to 410 nM; in [6], 490 nM; in data set [2] it was 420 nM; in data set [7] it was 800 nM. In data set [1], the “Selectivity Index” value stood at 5. For the same compound, the MNTC in [4] came out at 2000 nM.
Consider `COc1ccc2nc3cc(Cl)ccc3c(N3CCN(C)CC3)c2c1`, for which the values for the EC50 in data set [5] and in [2] were over 2000 nM and 360 nM, respectively. Also, the “Selectivity Index” value in [1] was 11. Moreover, the Activity in data set [3] was 1.8 µM. In addition, the MNTC in data set [4] was 4000 nM.
For `COc1ccc2nc3cc(Cl)ccc3c(N)c2c1`, the “Selectivity Index” value in [1] amounted to 30. Besides, the EC50 in [2] worked out at 130 nM. Besides, in data set [3], the Activity stood at 0.4 µM. Also, in [4], the MNTC turned out to be 4000 nM.
For the compound `COc1ccc2nc3cc(Cl)ccc3c(Nc3cccc(N4CCCCC4)c3)c2c1`, the “Selectivity Index” value in data set [1] worked out at 22. In [2], the EC50 amounted to 180 nM. The Activity in [3] was 0.5 µM. In [4], the MNTC amounted to 4000 nM.
